Test results: patent US20050074879A1, “Antisense oligonucleotide modulation of STAT3 expression” (priority 2000, published 2005)
Oligonucleotides are written 5' to 3', each unit as a sugar letter and its base; * is a phosphorothioate linkage, no mark a phosphodiester; rarer units and linkages stand in square brackets, end groups in braces. Plain capitals give the bases only. e = 2'-O-(2-methoxyethyl) (MOE); [5mC] = 5-methylcytosine; d = 2'-deoxy (DNA)

Tests used:
[1] = tested on: Human STAT3 mRNA; assay: Human STAT3 mRNA dose response in T-24 cells, real-time PCR with PPS 2033 (Table 19); format: cell-based; details: 16 hours, − decrease, + increase relative to untreated control
How it was run: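 T-24 cells got oligonucleotide at 18.75, 37.5, 75 or 150 nM with LIPOFECTIN (3 ug/mL per 100 nM oligo) for 16 h. STAT3 mRNA was quantified by real-time RT-PCR with primer-probe set PPS 2033, normalized to RiboGreen total RNA, and expressed as change versus untreated cells.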

[2] = tested on: Human STAT3 mRNA; assay: Inhibition of human STAT3 mRNA levels in A549 cells, 75 nM, real-time PCR (Table 13); format: cell-based; details: 75 nM oligonucleotide with LIPOFECTIN, real-time PCR PPS 199, percent inhibition relative to untreated control cells, average of 2 experiments
How it was run: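 A549 cells at 65–75% confluency were transfected in duplicate with 75 nM oligonucleotide plus […] Lipofectin for 4–7 h at 37° C and harvested 16–24 h later. STAT3 mRNA was quantified by real-time RT-PCR with primer-probe set PPS 199 and normalized to RiboGreen total RNA. Inhibition is relative to untreated controls.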

Substance	Percent change of STAT3 expression using PPS 2033 ([1]; 18.75 nM oligonucleotide)	Percent change of STAT3 expression using PPS 2033 ([1]; 37.5 nM oligonucleotide)	Percent change of STAT3 expression using PPS 2033 ([1]; 75 nM oligonucleotide)	Percent change of STAT3 expression using PPS 2033 ([1]; 150 nM oligonucleotide)	% Inhib (inhibition of human STAT 3 mRNA levels) [2]
337332 (antisense eG*eA*eA*eG*e[5mC]*d[5mC]*d[5mC]*dT*dT*dG*d[5mC]*d[5mC]*dA*dG*d[5mC]*e[5mC]*eA*eT*eG*eT) [compound 337332]	−66%	−79%	−85%	−91%	91%
337348 (antisense eT*e[5mC]*e[5mC]*eG*eA*dA*dT*dG*d[5mC]*d[5mC]*dT*d[5mC]*d[5mC]*dT*d[5mC]*e[5mC]*eT*eT*eG*eG) [compound 337348]	−53%	−76%	−83%	−86%	92%
337333 (antisense eA*eA*eG*eG*eA*dG*dA*dA*dG*d[5mC]*d[5mC]*d[5mC]*dT*dT*dG*e[5mC]*e[5mC]*eA*eG*e[5mC]) [compound 337333]	−46%	−70%	−82%	−90%	90%
